Entries after “also recorded” stand apart in the source; their conditions may differ.
Experiments:
[1] = tested on: MART-127-35 epitope specific CTLs; assay: Chromium release microcytotoxicity assay; assay type: cell-based; details: % specific lysis of peptide loaded T2 cells; inhibitor 25 μM
[2] = tested on: Bcl family proteins in CTL; assay: Western blot of Bcl family pro- and anti-apoptotic proteins in CTL after secondary stimulation; assay type: cell-based, human
Procedure: FIG. 12. Effect of antigen specific secondary stimulation on mitochondrial transmembrane membrane potential (Δψm), pro- and anti-apoptotic protein and expression of cell surface molecules. (A) Differential effect on membrane polarization in Mart-1 primary CTLs (top panel) vs. Jurkat T cells (bottom panel). CTLs were incubated with T2 cells either alone or loaded with peptide. After overnight secondary exposure cells were stained with Mart-1 tetramer/CD8 and DiOC6. Histogram represents the fluorescence of DiOC6 in the gated antigen specific tetramer^+ population (top panel). Jurkat T cells were also analyzed for modulation of membrane potential after TCR-driven stimulation (bottom panel). Values represent the mean±SD of fluorescence intensity triplicates from one out of three separate experiment. *p<0.001 (One Way ANOVA). […] (C) Expression of different cell surface receptors for survival or death signal in antigen specific population upon secondary stimulation. Values on left upper corner represent the geometric mean of the fluorescence intensity for that particular marker when stimulated with T2/MAGE-3271-279 while that on right upper corner represent the geometric mean of the fluorescence intensity when stimulated with T2/MART-127-35.
Washed cell pellets were lysed in RIPA buffer and a cytosolic fraction was prepared by spinning the lysate at 15,000 rpm. Proteins (20 μg/well) were separated on 15% SDS-PAGE, transferred onto nitrocellulose filters, probed with appropriate antibodies. Antibodies for Bcl-2, phospho Bcl-2, Bim, BCI-XL, Bax, Actin were purchased from Santa-Cruz Biotechnology, Santa-Cruz, Calif. Anti-Mcl-1 antibody was purchased from BD Pharmingen, Palo Alto, Calif. Blots were developed by HRP-tagged secondary antibody (Santa-Cruz Biotechnology, Santa-Cruz, Calif.) using a chemoluminescence kit (Amersham Biosciences, Buckinghamshire, U. K.).

[3] = tested on: phosphorylated Bim in CTL; assay: Generation of short phosphorylated Bim fragment in CTL during AICD; assay type: cell-based, human; details: CTLs encountering the MART-1 peptide
Source text: FIG. 16. Mitochondrial localization of JNK in the CTL. (A)—Heavy membrane fractions from CTLs in steady state (C), restimulated by the cognate peptide (M1) and control peptide (M3) and the corresponding cytosolic fractions (S-100) were probed for the presence for JNKs. As shown, JNK preferentially localized in the membrane fraction. (B)—The generation of short pBim fragment during AICD and the effect of SP600125 on the generation of this fragment. Mart-1 epitope specific control CTLs (c), and CTLs encountering the cognate peptide (M1), or encountering a control peptide (M3) and encountering the cognate peptide in the presence of SP600125 (SP) or encountering the cognate peptide in the presence of ERK1/2 inhibitor (PD)were probed with an anti-phosphorylated Bim antibody. A phosphorylated short fragment of Bim is generated in the CTLs encountering the MART-1 peptide and this is blocked by SP600125. (C)—Western blot of whole cell lysate of CTLs showing interaction between JNK and VDAC in CTLs (c=control, M1=CTL restimulated by the cognate peptide) Anti-CD8 Ab was used as a control antibody for immunoprecipitation.

## O=C1c2ccccc2-c2n[nH]c3cccc1c23 [SP600125, anthra[1,9-cd]pyrazol-6(2H)-one]
[1]
  cytotoxic function of CTLs in presence of inhibitor: did not affect; also recorded: does not affect
[2]
  BCI-XL expression: non-selectively up regulated
  Bcl-2 expression: non-selectively up regulated
  Mcl-1 level: selectively up regulated; also recorded: increased
  phosphorylated Bcl-2 level: selectively up regulated; also recorded: increased
[3]
  generation/phosphorylation of short phosphorylated Bim fragment: inhibitable; also recorded: blocked
